Results on 25 compounds are retold here after patent US5789434A, “Derivatives of substituted 4-biarylbutyric acid as matrix metalloprotease inhibitors” (priority 1995, dated 1998).

The structures appear in SMILES notation. pIC50: −log10 of the molar value.

One experiment concerns the target T1, MMP-9 (Homo sapiens, UniProt P14780).
T1 construct: from tissue; host or cells: human polymorphonuclear leukocytes (PMN) from whole blood (New York Blood Center), PMA-stimulated supernatant
As to the kind of experiment: Thiopeptilide MMP-9 Inhibition Assay. The experiment is classed as biochemical. To be noted: for pIC50: pH 6.5, x (n) = average of n determinations, read-out: MMP-9: Thiopep. IC50; for inhibition at 5 µM: read-out: MMP-9: Thiopep. % inhibition.

The target of the next experiment is T2, MMP-3 (Homo sapiens, UniProt P08254).
T2 construct: Truncated Prostromelysin-257 was expressed in a soluble form in E.coli; made in house; host or cells: E. coli
As to the kind of experiment: Primary Thiopeptilide MMP-3 Inhibition Assay. The experiment is classed as biochemical. To be noted: for pIC50: pH 6.5, 13 nM stromelysin, x (n) = average of n determinations, read-out: MMP-3 Thiopep. IC50; for inhibition at 5 µM: read-out: MMP-3 Thiopep. % inhibition.

T2 sequence (P08254 100-274 limits assumed): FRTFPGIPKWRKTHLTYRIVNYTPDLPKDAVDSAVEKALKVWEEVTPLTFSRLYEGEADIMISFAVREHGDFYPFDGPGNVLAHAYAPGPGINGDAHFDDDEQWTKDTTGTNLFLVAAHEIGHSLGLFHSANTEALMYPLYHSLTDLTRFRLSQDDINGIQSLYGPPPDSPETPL
T1 sequence (P14780 107-707 limits assumed): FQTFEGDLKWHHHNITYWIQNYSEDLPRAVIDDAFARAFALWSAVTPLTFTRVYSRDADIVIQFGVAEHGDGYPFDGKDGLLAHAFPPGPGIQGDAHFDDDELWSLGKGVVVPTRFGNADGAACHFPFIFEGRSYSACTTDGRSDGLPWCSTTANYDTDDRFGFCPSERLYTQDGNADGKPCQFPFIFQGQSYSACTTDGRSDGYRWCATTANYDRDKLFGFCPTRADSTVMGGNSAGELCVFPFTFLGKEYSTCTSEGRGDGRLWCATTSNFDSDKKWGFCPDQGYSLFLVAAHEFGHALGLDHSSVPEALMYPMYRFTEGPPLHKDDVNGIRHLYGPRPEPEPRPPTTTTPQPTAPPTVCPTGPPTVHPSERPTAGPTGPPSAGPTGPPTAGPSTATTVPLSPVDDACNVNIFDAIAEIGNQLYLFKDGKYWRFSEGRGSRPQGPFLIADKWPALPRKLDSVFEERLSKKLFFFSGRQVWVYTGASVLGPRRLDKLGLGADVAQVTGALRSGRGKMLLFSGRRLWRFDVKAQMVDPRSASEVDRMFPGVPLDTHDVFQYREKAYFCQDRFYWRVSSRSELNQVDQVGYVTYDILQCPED
Method for MMP-3: Enzyme: recombinant stromelysin expressed in E.coli and purified as described above. […] The protocols for the assay of compounds as stromelysin inhibitors was the same as that used for MMP-9 except that the assay buffer was 50 mM MES, pH 6.5 containing 150 mM NaCl, 10 mM CaCl2, 0.005% Brij, and 1% DMSO.

Broadly, the pIC50 is the IC50 on a negative log10 scale, so that one unit is a factor of ten. With `N#Cc1ccc(-c2ccc(C(=O)CC(CCCc3ccccc3)C(=O)O)cc2)cc1` (stereo not drawn) [Example 56, [1,1'-Biphenyl]-4-butanoic acid, 4'-cyano-γ-oxo-α-(3-phenylpropyl)-], the pIC50 at MMP-9 was 6.15; at MMP-3, 6.51.
The corresponding values for `COc1ccc(CSCC(CC(=O)c2ccc(-c3ccc(Cl)cc3)cc2)C(=O)O)cc1` (stereo not drawn) [Example 201, [1,1'-Biphenyl]-4-butanoic acid, 4'-chloro-α-[[[(4-methoxyphenyl)methyl]thio]methyl]-γ-oxo-] are 6.10 and 6.47.
Broadly, the inhibition is the change of the read-out against control, counted positive when it falls. Regarding `C=C(CC(=O)c1ccc(-c2ccc(Cl)cc2)cc1)C(=O)O` [Example 23, [1,1'-Biphenyl]-4-butanoic acid, 4'-chloro-α-methylene-γ-oxo-, reference compound], the inhibition at 5 µM is 0% at MMP-9 and 24% on MMP-3.
`O=C(O)[C@@H]1CCCC[C@H]1C(=O)c1ccc(-c2ccc(Cl)cc2)cc1` (relative stereo) [Example 285, Cyclohexanecarboxylic acid, 2-[(4'-chloro[1,1'-biphenyl]-4-yl)carbonyl]-, trans-]: the inhibition at 5 µM on MMP-9 was found to be 21%. In addition, the pIC50 at MMP-3 was 5.60.
`O=C(O)CCC(=O)c1ccc(-c2ccccc2Cl)cc1` [Example 10, [1,1'-Biphenyl]-4-butanoic acid, 2'-chloro-γ-oxo-, reference compound]: the inhibition at 5 µM stood at 0% at MMP-9 and 1% at MMP-3.
Turning to `O=C(CC(CCCc1ccccc1)C(=O)O)c1ccc(-c2ccc(I)cc2)cc1` (stereo not drawn) [Example 40, [1,1'-Biphenyl]-4-butanoic acid, 4'-iodo-γ-oxo-α-(3-phenylpropyl)-], the pIC50 at MMP-9 was 7.30; on MMP-3 it was 6.92.
For `O=C(CC(CCCCc1ccccc1)C(=O)O)c1ccc(-c2ccc(Cl)cc2)cc1` (stereo not drawn) [Example 179, [1,1'-Biphenyl]-4-butanoic acid, 4'-chloro-γ-oxo-α-(4-phenylbutyl)-] the same measures were 6.70 and 6.80.
As to `O=C(CC(CCCc1ccccc1)C(=O)O)c1ccc(-c2ccc(-c3nnn[nH]3)cc2)cc1` (stereo not drawn) [Example 57, [1,1'-Biphenyl]-4-butanoic acid, γ-oxo-α-(3-phenylpropyl)-4'-(1H-tetrazol-5-yl)-], the inhibition at 5 µM was found to be 22% on MMP-9 and 16% at MMP-3.
Consider `O=C(O)/C=C/C(=O)c1ccc(Oc2ccc(Cl)cc2)cc1` [Example 30, 2-Butenoic acid, 4-[4-(4-chlorophenoxy)penyl]-4-oxo-, (E)-, reference compound], for which the inhibition at 5 µM on MMP-9 worked out at 25%; on MMP-3, 8%.
With `O=C(O)[C@@H]1C[C@H]1C(=O)c1ccc(-c2ccc(Cl)cc2)cc1` (relative stereo) [Example 293, Cyclopropanecarboxylic acid, 2-[(4'-chloro[1,1'-biphenyl]-4-yl)carbonyl]-, trans-, reference compound], the inhibition at 5 µM on MMP-9 amounted to 0%; on MMP-3, 16%.
As for `CC(C)c1ccccc1SCC(CC(=O)c1ccc(-c2ccc(Cl)cc2)cc1)C(=O)O` (stereo not drawn) [Example 221, [1,1'-Biphenyl]-4-butanoic acid, 4'-chloro-α-[[[2-(1-methylethyl)phenyl]thio]methyl]-γ-oxo-], the pIC50 was 5.62 on MMP-9 and 6.62 on MMP-3.
For the compound `O=C(CC(CCCc1ccccc1)C(=O)O)c1ccc(-c2ccc(Cl)cc2Cl)cc1` (stereo not drawn) [Example 77, [1,1'-Biphenyl]-4-butanoic acid, 2',4'-dichloro-γ-oxo-α-(3-phenylpropyl)-], the inhibition at 5 µM on MMP-9 turned out to be 7%; on MMP-3, 24%.
Turning to `O=C(O)[C@H]1[C@@H](Sc2ccccc2)CC[C@@H]1C(=O)c1ccc(-c2ccc(Cl)cc2)cc1` (relative stereo) [Example 295], the pIC50 on MMP-9 is 6.22; at MMP-3, 7.00.
For `Cc1ccccc1SCC(CC(=O)c1ccc(-c2ccc(Cl)cc2)cc1)C(=O)O` (stereo not drawn) [Example 232, [1,1'-Biphenyl]-4-butanoic acid, 4'-chloro-α-[[(2-methylphenyl)thio]methyl]-γ-oxo-] the same measures were 6.70 and 6.82.
For `CCCCCc1ccc(-c2ccc(C(=O)CC(CC(C)C)C(=O)O)cc2)cc1` (stereo not drawn) [Example 22, [1,1'-Biphenyl]-4-butanoic acid, α-(2-methylpropyl)-γ-oxo-4'-pentyl-] the same measures were 5.92 and 6.10.
For `O=C(O)CCC(CCCc1ccccc1)C(=O)c1ccc(-c2ccc(Cl)cc2)cc1` (centres unmarked) [Example 343, [1,1'-Biphenyl]-4-pentanoic acid, 4'-chloro-δ-oxo-γ-(phenylpropyl)-], the pIC50 at MMP-9 was 6.17; on MMP-3, 6.30.
The corresponding values for `O=C(CC(CSc1cccs1)C(=O)O)c1ccc(-c2ccc(Cl)cc2)cc1` (stereo not drawn) [Example 199, [1,1'-Biphenyl]-4-butanoic acid, 4'-chloro-γ-oxo-α-[(2-thienylthio)methyl]-] are 6.70 and 6.77.
Consider `O=C(c1ccc(-c2ccc(Cl)cc2)cc1)[C@H]1C[C@H]1C(=O)O` (relative stereo) [Example 292, Cyclopropanecarboxylic acid, 2-[(4'-chloro[1,1'-biphenyl]-4-yl)carbonyl]-, cis-, reference compound], for which the inhibition at 5 µM on MMP-9 turned out to be 12%; at MMP-3, 21%.
Regarding `O=C(CC(CCCc1ccccc1)C(=O)O)c1ccc(-c2ccc(C(F)(F)F)cc2)cc1` (stereo not drawn) [Example 62, [1,1'-Biphenyl]-4-butanoic acid, γ-oxo-α-(3-phenylpropyl)-4'-(trifluoromethyl)-], the negative-log IC50 (pIC50) on MMP-9 was 5.35; at MMP-3 it was 6.40.
Turning to `O=C(CC(CSc1ccccc1O)C(=O)O)c1ccc(-c2ccc(Cl)cc2)cc1` (stereo not drawn) [Example 240, [1,1'-Biphenyl]-4-butanoic acid, 4'-chloro-α-[[(2-hydroxyphenyl)thio]methyl]-γ-oxo-], the pIC50 on MMP-9 is 6.52; at MMP-3, 7.02.
Turning to `CC1=CC[C@@H](C(=O)c2ccc(-c3ccc(Cl)cc3)cc2)[C@H](C(=O)O)C1` (relative stereo) [Example 329, 3-Cyclohexene-1-carboxylic acid, 6-[(4'-chloro[1,1'-biphenyl]-4-yl)carbonyl]-3-methyl-, trans-], the pIC50 on MMP-9 was 5.10. In addition, the inhibition at 5 µM at MMP-3 came to 58%.
As to `O=C(CC(CSc1ccccc1Br)C(=O)O)c1ccc(-c2ccc(Cl)cc2)cc1` (stereo not drawn) [Example 219, [1,1'-Biphenyl]-4-butanoic acid, 4'-chloro-α-[[(2-bromophenyl)thio]methyl]-4'-chloro-γ-oxo-], the pIC50 on MMP-9 was 6.22; at MMP-3, 6.59.
Regarding `CC(C)C[C@@H](CC(=O)c1ccc(-c2ccc(Cl)cc2)cc1)C(=O)O` [Example 2, [1,1'-Biphenyl]-4-butanoic acid, 4'-chloro-α-(2-methylpropyl)-γ-oxo-, (S)-], the pIC50 is 5.66 on MMP-9 and 6.57 on MMP-3.
For `CC(=O)SCC(CC(=O)c1ccc(-c2ccc(Cl)cc2)cc1)C(=O)O` (stereo not drawn) [Example 200, [1,1'-Biphenyl]-4-butanoic acid, α-[(acetylthio)methyl]-4'-chloro-γ-oxo-] the same measures were 5.64 and 6.19.
As to `CSCCCC(CC(=O)c1ccc(-c2ccc(Cl)cc2)cc1)C(=O)O` (stereo not drawn) [Example 266, [1,1'-Biphenyl]-4-butanoic acid, 4'-chloro-α-[3-(methylthio)propyl]-γ-oxo-], the pIC50 is 6.19 on MMP-9 and 6.60 on MMP-3.
